# Source: patent publication US20110092484A1, “THERAPEUTIC OR PROPHYLACTIC AGENT FOR CEREBRAL ANEURYSM” (NIPPON CHEMIPHAR CO., LTD., priority 2007, published 2011)
# “Also recorded” adds a separate entry of the source.
# Tests used:
# [1] = target: cathepsin B (Homo sapiens, UniProt P07858); assay: Inhibition of cathepsin B (IC50); assay type: biochemical; conditions: read-out: IC 50 for cathepsin B
# [2] = target: cathepsin S (Homo sapiens, UniProt P25774); assay: Inhibition of cathepsin S (IC50); assay type: biochemical; conditions: read-out: IC 50 for cathepsin S
# [3] = test system: matrix metalloproteases; assay: Inhibition of other proteases; assay type: biochemical
# [4] = test system: experimentally induced cerebral aneurysms; assay: Experimentally induced cerebral aneurysm model, histopathology of the ACA/OA bifurcation; assay type: in vivo, SD (Sprague-Dawley) rats
# Description: After the induction of pentobarbital anesthesia (50 mg/kg), the left common carotid artery and posterior branches of the bilateral renal arteries were ligated at the same time with 10-0 nylon in 7 week-old male SD (Sprague-Dawley) rats. Animals were fed special food containing 8% sodium chloride and 0.12% β-aminopropionitrile (an inhibitor of lysyl oxidase that catalyzes the cross-linking of collagen and elastin). Blood pressure was measured by tail-cuff method. Animal care and experiments complied with Japanese community standards on the care and use of laboratory animals.
# A total of 18 rats were orally given 50 mg/kg/day of the inhibitor. Immediately after aneurysm induction, rats were fed food with (n=18) or without (n=21) 50 mg/kg/day of the inhibitor, and sacrificed after three months. The ACA/OA bifurcation was stripped and observed under a light microscope after Elastica van Gieson staining. Early aneurysmal change refers to a lesion with the discontinuity of the internal elastic lamina without apparent outward bulging of the arterial wall. Advanced aneurysm refers to an obvious outward bulging of the arterial wall with the fragmentation or disappearance of the internal elastic lamina. After immunohistochemistry for CD68, the number of CD68-positive cells was counted on each section. Three independent researchers assessed the histopathological changes.
# The values were expressed as means Standard deviation (SD). Statistical analysis was performed by using Student's t-test for a two-group comparison and one-way ANOVA followed by Fisher test for a multiple comparison. The incidence of aneurysmal changes was analyzed by the use of Fisher's exact test. Differences were considered statistically significant at P<0.05.
# [5] = Serum concentration of the inhibitor in treated rats; assay type: in vivo; conditions: 50 mg/kg/day orally in food
# [6] = test system: CD68-positive cells; assay: Macrophage infiltration around aneurysms (CD68-positive cells counted); assay type: in vivo, rats; conditions: 50 mg/kg/day, n=10; control 5.3±1.5; did not differ
# Description: Three months after aneurysm induction, all rats (n=10) were deeply anesthetized and perfused transcardinally with 4% paraformaldehyde. As a control, age-matched male Sprague-Dawley rats were euthanized as described above. The anterior cerebral artery/olfactory artery (ACA/OA) bifurcation was stripped, embedded and cut into 5 μm sections. After blocking with 5% Donkey serum, primary antibodies were incubated for one hour at room temperature followed by incubation with fluorescence labeled secondary antibodies for one hour at room temperature. The secondary antibodies were FITC-conjugated donkey anti-goat IgG antibody, FITC-conjugated donkey anti-rabbit IgG antibody, Cy3-conjugated donkey anti-mouse IgG antibody, and Cy3-conjugated donkey anti-rabbit IgG antibody. Then the slides were covered with PERMAFLUOR (Immunotec) and excited for fluorescence by illumination through a fluorescence microscope system (Olympus). […]
# A total of 18 rats were orally given 50 mg/kg/day of the inhibitor. […] After immunohistochemistry for CD68, the number of CD68-positive cells was counted on each section. Three independent researchers assessed the histopathological changes.
# [7] = target: T1, cathepsin B (Rattus norvegicus, UniProt P00787); assay: Cathepsin B activity in aneurysmal walls, azo-coupling method (in situ); assay type: in vivo; conditions: three months after aneurysm induction, treated rats
# T1 construct: from tissue; host or cells: frozen sections of rat cerebral aneurysmal wall (Sprague-Dawley rats)
# Description: In order to examine cathepsin B activity in aneurysmal walls, azo-coupling method (in situ) was performed. Three months after aneurysm induction, rats (n=6 in each group) were euthanized as described above. Five μm frozen sections were incubated for one hour at 37° C. with 3.2 mM Z-arg-arg-4-Methoxy-2-Naphthylamine (Cosmo Bio) in 100 mM potassium phosphate buffer containing 10% polyvinyl alcohol, 10 mM dithiothreitol, 2.7 mM L-Cysteine and 1.3 mM EDTA (Sigma). After then, the slides were placed in 125 mg/ml of N-ethylmaleimide in potassium phosphate buffer following at 55° C. for 5 minutes, followed by incubation with Fast Blue Solution (Fast Blue 21 mg/100 ml of potassium phosphate solution, Sigma) for thirty minutes and 0.1M cupric sulfate solution for 15 minutes at room temperature. After washing with physiological saline, the slides were covered with PERMAFLUOR (Immunotec).
# [8] = test system: collagenase I; assay: Collagenase activity in lysate of the whole Willis ring, type I collagen; assay type: in vivo; conditions: treated rats n=5, P=0.014
# Description: (§1) One hundred fifty […] of protein was used in one experiment (n=5 in each group). Collagenase activity was measured using Collagenase Activity Measurement Kit (Life Laboratory). Briefly, fluorescence labeled type I or IV collagen was incubated with the lysate of the whole Willis ring for one hour at 37° C. Undigested fluorescence labeled collagen was extracted in ethanol solution and measured by fluorospectrometer with excitation 496 nm and measurement 520 nm. Collgenase activity (U/ml) was calculated by the fluorescence intensity according to the formula given in the manufacture's direction.
# [9] = test system: collagenase IV; assay: Collagenase activity in lysate of the whole Willis ring, type IV collagen; assay type: in vivo; conditions: treated rats n=5, P=0.044
# Description: as §1
# T1 sequence (P00787 80-333): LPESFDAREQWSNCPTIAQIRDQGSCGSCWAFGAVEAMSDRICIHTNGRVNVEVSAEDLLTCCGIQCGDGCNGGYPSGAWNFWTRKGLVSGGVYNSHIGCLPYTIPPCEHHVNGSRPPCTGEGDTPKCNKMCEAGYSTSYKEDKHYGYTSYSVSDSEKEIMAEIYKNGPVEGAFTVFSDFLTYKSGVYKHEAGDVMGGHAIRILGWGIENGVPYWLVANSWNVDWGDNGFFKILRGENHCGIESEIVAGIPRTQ
# Sequence of cathepsin S (P25774 115-331, species assumed): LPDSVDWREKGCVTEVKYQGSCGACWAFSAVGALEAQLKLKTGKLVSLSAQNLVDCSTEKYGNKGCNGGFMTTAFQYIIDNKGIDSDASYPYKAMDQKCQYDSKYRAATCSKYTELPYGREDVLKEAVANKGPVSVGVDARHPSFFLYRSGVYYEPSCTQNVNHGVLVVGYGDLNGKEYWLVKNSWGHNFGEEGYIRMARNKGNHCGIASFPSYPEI
compound,measurement,setting,value
"CC(C)COC[C@H](CC(C)C)NC(=O)[C@H]1O[C@@H]1C(=O)O [cysteine protease inhibitor, monosodium (2S,3S)-3-[[(1S)-1-isobutoxymethyl-3-methylbutyl]carbamoyl]-oxirane-2-carboxylate]",IC50,[1],284 nM
same,IC50,[2],186 nM
same,Inhibition of other proteases such as matrix metalloproteases,[3],did not inhibit
same,Rats that developed advanced aneurysms,"[4]; 50 mg/kg/day in food, three months after aneurysm induction, control 19 of 21",5 of 10
same,Rats that showed early aneurysmal changes,"[4]; 50 mg/kg/day in food, three months after aneurysm induction, of 10 rats, control 2 of 21",4 rats
same,Incidence of all aneurysmal changes versus control group,"[4]; 50 mg/kg/day, three months",not different
same,Rate (incidence) of advanced aneurysms versus control group,"[4]; 50 mg/kg/day, three months, P=0.022",significantly lower; also recorded: dramatically reduced
same,Serum concentration,[5],628.5 ± 22.3 nM
same,Macrophage infiltration per 50 μm×50 μm field around aneurysms,[6],4.9±1.7 cells/field
same,Cathepsin B activity at the aneurysmal walls versus untreated aneurysm rats,[7],reduced
same,Collagenase I activity versus control group,[8],significantly lower
same,Collagenase IV activity versus control group,[9],significantly lower
